# Laboratory results as given in US20210395650A1, “COMPOUNDS STABILIZING HYDROLASES IN LIQUIDS” (BASF SE, priority 2018, published 2021).
# Counter-ions that a name gives are not always drawn.
# Biological target: T1, Savinase® 16.0L (Lederbergia lenta, UniProt P29600)
# T1 construct: purchased Sigma-Aldrich
# T1 sequence (P29600 1-269): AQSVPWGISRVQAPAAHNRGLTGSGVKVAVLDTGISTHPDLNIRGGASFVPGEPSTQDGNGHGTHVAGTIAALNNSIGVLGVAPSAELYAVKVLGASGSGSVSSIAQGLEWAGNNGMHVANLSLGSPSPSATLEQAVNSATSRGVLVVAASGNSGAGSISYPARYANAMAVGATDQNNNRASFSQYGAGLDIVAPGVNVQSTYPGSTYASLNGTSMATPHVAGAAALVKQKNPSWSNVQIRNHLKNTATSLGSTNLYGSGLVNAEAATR
# Experiment: Protease storage stability in liquid formulations at 37° C. (Suc-AAPF-pNA assay)
# Type: biochemical
# Conditions: 0.7 wt% Savinase 16.0 L
# Description: The storage stability of protease was assessed at 37° C.
# Base test formulations were manufactured by making base formulations I to V by mixing the components according to Table 1.
# Protease used: Savinase® 16.0L (CAS-No. 9014-01-1, EC-No. 232-752-2) was purchased from Sigma-Aldrich.
# The respective component (a) or comparative compound was added, if applicable, to the respective base formulation in amounts as indicated in Table 1.
# The amount of protease as provided in Table 1 refers to active protein.
# Water was added to accomplish the balance to 100.
# Savinase activity at certain points in time as indicated in Table 2 was be determined by employing Succinyl-Ala-Ala-Pro-Phe-p-nitroanilide (Suc-AAPF-pNA, short AAPF) as substrate. pNA is cleaved from the substrate molecule by proteolytic cleavage, resulting in release of yellow color of free pNA which was determined by measuring OD405. Measurements were done at 20° C.
# The proteolytic activity values provided in Table 3 were calculated referring to the 100% value determined in the reference formulation at the time 0.
# The nomenclature of formulations is as follows: the Roman number before the full stop characterizes the base formulation, the Arabian number the type of compound (A. # compound according to invention (component (a)); (B. #) comparative compound).
# [1] = base formulation II, 2.5 wt% compound, 3 d
# [2] = base formulation II, 2.5 wt% compound, 7 d
# [3] = base formulation II, 2.5 wt% compound, 14 d
# [4] = base formulation II, 2.5 wt% compound, 21 d
# [5] = base formulation II, 2.5 wt% compound, 28 d
# [6] = base formulation II, 2.5 wt% compound, 35 d
# [7] = base formulation IV, 2.0 wt% compound, 3 d
# [8] = base formulation IV, 2.0 wt% compound, 7 d
# [9] = base formulation IV, 2.0 wt% compound, 14 d
# [10] = base formulation IV, 2.0 wt% compound, 21 d
# [11] = base formulation IV, 2.0 wt% compound, 28 d
# [12] = base formulation IV, 2.0 wt% compound, 35 d
# [13] = base formulation I, 2.5 wt% compound, 3 d
# [14] = base formulation I, 2.5 wt% compound, 7 d
# [15] = base formulation I, 2.5 wt% compound, 14 d
# [16] = base formulation I, 2.5 wt% compound, 21 d
# [17] = base formulation I, 2.5 wt% compound, 28 d
# [18] = base formulation I, 2.5 wt% compound, 35 d
# [19] = base formulation III, 2.0 wt% compound, 3 d
# [20] = base formulation III, 2.0 wt% compound, 7 d
# [21] = base formulation III, 2.0 wt% compound, 14 d
# [22] = base formulation III, 2.0 wt% compound, 21 d
# [23] = base formulation III, 2.0 wt% compound, 28 d
# [24] = base formulation III, 2.0 wt% compound, 35 d
# [25] = base formulation II, 2.5 wt% compound, T0
# [26] = base formulation V, 2.0 wt% compound, 3 d
# [27] = base formulation V, 2.0 wt% compound, 7 d
# [28] = base formulation V, 2.0 wt% compound, 14 d
# [29] = base formulation V, 2.0 wt% compound, 21 d
# [30] = base formulation V, 2.0 wt% compound, 28 d
# [31] = base formulation V, 2.0 wt% compound, 35 d
# [32] = base formulation V, 2.0 wt% compound, T0
Compound,protease activity in the course of time of storage at 37° C. [1] [%],protease activity in the course of time of storage at 37° C. [2] [%],protease activity in the course of time of storage at 37° C. [3] [%],protease activity in the course of time of storage at 37° C. [4] [%],protease activity in the course of time of storage at 37° C. [5] [%],protease activity in the course of time of storage at 37° C. [6] [%],protease activity in the course of time of storage at 37° C. [13] [%],protease activity in the course of time of storage at 37° C. [14] [%],protease activity in the course of time of storage at 37° C. [15] [%],protease activity in the course of time of storage at 37° C. [16] [%],protease activity in the course of time of storage at 37° C. [17] [%],protease activity in the course of time of storage at 37° C. [18] [%],protease activity in the course of time of storage at 37° C. [19] [%],protease activity in the course of time of storage at 37° C. [20] [%],protease activity in the course of time of storage at 37° C. [21] [%],protease activity in the course of time of storage at 37° C. [22] [%],protease activity in the course of time of storage at 37° C. [23] [%],protease activity in the course of time of storage at 37° C. [24] [%],protease activity in the course of time of storage at 37° C. [26] [%],protease activity in the course of time of storage at 37° C. [27] [%],further results
"O=C(O)CC(O)(CC(=O)O)C(=O)O [B.2, citric acid trisodium salt, reference compound]",95,82,75,66,63,60,–,–,–,–,–,–,–,–,–,–,–,–,–,–,"protease activity in the course of time of storage at 37° C. (base formulation I, 2.5 wt% compound, 3 d, trisodium salt): 95%; protease activity in the course of time of storage at 37° C. (base formulation I, 2.5 wt% compound, 7 d, trisodium salt): 84%; protease activity in the course of time of storage at 37° C. (base formulation I, 2.5 wt% compound, 14 d, trisodium salt): 68%; protease activity in the course of time of storage at 37° C. (base formulation I, 2.5 wt% compound, 21 d, trisodium salt): 64%; protease activity in the course of time of storage at 37° C. (base formulation I, 2.5 wt% compound, 28 d, trisodium salt): 59%; protease activity in the course of time of storage at 37° C. (base formulation I, 2.5 wt% compound, 35 d, trisodium salt): 55%; protease activity in the course of time of storage at 37° C. (base formulation III, 2.0 wt% compound, 3 d, trisodium salt): 93%; protease activity in the course of time of storage at 37° C. (base formulation III, 2.0 wt% compound, 7 d, trisodium salt): 83%; protease activity in the course of time of storage at 37° C. (base formulation III, 2.0 wt% compound, 14 d, trisodium salt): 73%; protease activity in the course of time of storage at 37° C. (base formulation III, 2.0 wt% compound, 21 d, trisodium salt): 62%; protease activity in the course of time of storage at 37° C. (base formulation III, 2.0 wt% compound, 28 d, trisodium salt): 57%; protease activity in the course of time of storage at 37° C. (base formulation III, 2.0 wt% compound, 35 d, trisodium salt): 50%; protease activity in the course of time of storage at 37° C. [7]: 91%; protease activity in the course of time of storage at 37° C. [8]: 86%; protease activity in the course of time of storage at 37° C. [9]: 70%; protease activity in the course of time of storage at 37° C. [10]: 64%; protease activity in the course of time of storage at 37° C. [11]: 58%; protease activity in the course of time of storage at 37° C. [12]: 52%"
"CCOC(=O)C(=O)OCC [B.3, diethyloxalate, reference compound]",–,–,–,–,–,–,90,86,70,65,62,58,92,85,74,60,55,51,–,–,–
"O=C(CC(O)(CC(=O)OCc1ccccc1)C(=O)OCc1ccccc1)OCc1ccccc1 [A.8, Tribenzylcitrate]",94,91,88,85,83,77,–,–,–,–,–,–,–,–,–,–,–,–,96,92,protease activity in the course of time of storage at 37° C. [25]: 100%; protease activity in the course of time of storage at 37° C. [28]: 86%; protease activity in the course of time of storage at 37° C. [29]: 84%; protease activity in the course of time of storage at 37° C. [30]: 80%; protease activity in the course of time of storage at 37° C. [31]: 73%; protease activity in the course of time of storage at 37° C. [32]: 96%
"O=C(O)CC(O)(CC(=O)O)C(=O)O [B.1, citric acid, reference compound]",–,–,–,–,–,–,94,86,76,67,62,57,92,84,75,65,60,53,93,86,protease activity in the course of time of storage at 37° C. [28]: 75%; protease activity in the course of time of storage at 37° C. [29]: 65%; protease activity in the course of time of storage at 37° C. [30]: 57%; protease activity in the course of time of storage at 37° C. [31]: 50%
"CCCCOC(=O)CC(O)(CC(=O)OCCCC)C(=O)OCCCC [A.3, Tributylcitrate]",–,–,–,–,–,–,–,–,–,–,–,–,–,–,–,–,–,–,98,93,"protease activity in the course of time of storage at 37° C. [7]: 100%; protease activity in the course of time of storage at 37° C. [8]: 96%; protease activity in the course of time of storage at 37° C. [9]: 91%; protease activity in the course of time of storage at 37° C. [10]: 84%; protease activity in the course of time of storage at 37° C. [11]: 81%; protease activity in the course of time of storage at 37° C. [12]: 77%; protease activity in the course of time of storage at 37° C. (base formulation IV, 2.0 wt% compound, T0): 99%; protease activity in the course of time of storage at 37° C. [28]: 88%; protease activity in the course of time of storage at 37° C. [29]: 85%; protease activity in the course of time of storage at 37° C. [30]: 80%; protease activity in the course of time of storage at 37° C. [31]: 74%; protease activity in the course of time of storage at 37° C. [32]: 101%"
Diethylcitrate [A.7],98,96,94,90,87,83,95,91,85,81,76,69,96,93,84,83,76,72,–,–,"protease activity in the course of time of storage at 37° C. (base formulation I, 2.5 wt% compound, T0): 100%; protease activity in the course of time of storage at 37° C. [25]: 98%; protease activity in the course of time of storage at 37° C. (base formulation III, 2.0 wt% compound, T0): 100%"
